Source: article PMC3790851, “Improved Mass Spectrometry Assay For Plasma Hepcidin: Detection and Characterization of a Novel Hepcidin Isoform” (PLoS ONE, 2013)

How the values were obtained:
[1] = Effect of solvent of hepcidin-25^+40 on loss of peptide and hepcidin-25 value assignment; assay type: physicochemical
Protocol: Heavy hepcidin-25^+40 (hepcidin-25^+40 Da; DTHF(^13C9,^15N)P(^13C5,^15N)I(^13C6,^15N)CI(^13C6,^15N) F(^13C9,^15N)CCG(^15N)CCHRSKCGMCCKT disulfide bridged) was obtained from Peptides International (Table 1). Note that due to an isotope content of 98% the actual mass is 1 Da less than the theoretical mass of this peptide. Freeze dried hepcidin-25^+40 was dissolved in H2O in accordance with the manual. An 0.1 nmol/L solution of hepcidin-25^+40 was aliquoted in 12 µL volumes in 200 µL polypropylene tubes and stored at −80°C until use.
As quantification of native hepcidin in a sample is related to the known concentration of the spiked internal standard, the absolute levels of measured hepcidin are highly dependent on the value assignment of the used internal standard. One determining factor concerns proper dissolvent of the lyophilized peptide and whether or not a substantial amount of the internal standard is lost by aggregation or sticking to laboratory plastics during its preparation. Therefore, we compared the effects of three different solvents to prepare hepcidin-25^+40 stock solutions on the measured hepcidin-25 concentration of a series of spiked blank serum samples to which known hepcidin-25 concentrations were added. […] This finding implicates that use of 5% phosphoric acid leads to loss of about 50% of the peptide, while this seems to be the case for about 15% of the peptide when water is used. […] Therefore, 20% acetonitrile was implemented as solvent for the internal standard in our standard operating procedure, which was used throughout the remainder of this study.
Figure 1 Effect on the solvent of hepcidin-25^+40 on hepcidin-25 linearity and value assignment. […] Linearity of measured hepcidin-25 was determined by the formulas: Y = 1.822X+0.097 (5% phosphoric acid); Y = 1.119X+0.494 (water); Y = 0.964X+0.069 (20% acn).

[2] = serum, healthy controls; cited from earlier work
Excerpt: We observed no differences between the various anticoagulants used. We observed, however, a small non significant decrease of hepcidin-25 upon freezing (e.g. for heparin samples at 7 days: total intensive care and control (n = 15): 95% (CV 8%) relative to fresh samples, Table S3). […] However, it should be noted that the reproducibility of the measurements of the smaller isoforms at low concentrations is low, especially the measurements of hepcidin-20 in EDTA plasma samples (Table 2, Table S3). Thus, hepcidin measurements by WCX-TOF MS are no ...

[3] = at least; cited from earlier work
Protocol: We conclude that hepcidin-25 results are not changed during 2 years of storage at −80°C, except for a possible small decrease upon freezing. However, after 2 years storage at −80°C, hepcidin results become less precise and individual measurements might become less reliable. Average results for a population may not be affected, but existing differences in hepcidin levels between groups, or correlations of hepcidin with other parameters might be more difficult to assess.

[4] = set-up: method as in PMID 22222553; settings: serum, 12 healthy controls; cited from earlier work

Row | loss of peptide on dissolution in 5% phosphoric acid ([1]; inferred from false high measured hepcidin-25 in spiked blank serum) | loss of peptide on dissolution in water ([1]; inferred from measured hepcidin-25 in spiked blank serum) | measured to nominal hepcidin-25 ratio, internal standard in 20% acetonitril ([1]; spiked blank serum) | Substance | stability at -20°C [2] [days] | stability at -80°C [3] | stability at 4°C [4] [days]
1 | about 50% | about 15% | near 1∶1 ratio | DTHF(^13C9,^15N)P(^13C5,^15N)I(^13C6,^15N)CI(^13C6,^15N) F(^13C9,^15N)CCG(^15N)CCHRSKCGMCCKT disulfide bridged (disulfide) [Hepcidin-25^+40, novel custom made heavy hepcidin-25 isotope, disulfide bridged, internal standard] |  |  | 
2 |  |  |  | hepcidin: hepcidin as measured in plasma or serum, isoform not specified at the place | ≥ 42 | 6–8 months | 6
